Experimental data: patent US20070004639A1, “Methods and compositions for treating Parkinson's disease” (BodyBio, Inc., priority 2005, published 2007)
Where two headings read alike, the source gives them in different places.

Columns and labels:
[1] = test system: Parkinson's Disease; test: Parkinson's patients case studies (oral nutrients plus IV infusions)
[2] = test system: Parkinson's Disease; conditions: in vivo; cited from earlier work
[3] = test system: mouse model of Bulbar ALS; conditions: oral administration; cited from earlier work
[4] = cited from earlier work
[5] = in vivo; cited from earlier work
[6] = test system: Parkinson's Disease; conditions: in vivo; cited from earlier work; remark: listed apart in the source
[7] = test system: Parkinson's Disease; conditions: human, in vivo; cited from earlier work
[8] = test system: Parkinson's Disease; conditions: cited from earlier work
[9] = test system: Parkinson's Disease; conditions: after five years; cited from earlier work
[10] = test system: Parkinson's Disease; conditions: 800 mild, early Parkinson's Disease patients; cited from earlier work

Compound: N[C@@H](CCC(=O)N[C@@H](CS)C(=O)NCC(=O)O)C(=O)O [Glutathione, N—(N-L-gamma-glutamyl-L-cysteinyl)glycine]
- tremor ([1]; Case Study 1, IV Glutathione push once weekly, after 6 months): slightly improved

Compound: CCCN[C@H]1CCc2nc(N)sc2C1 [pramipexole]
- patients completely free from motor complications [2]: 72%
- patients in whom dyskinesias developed [2]: 10%
- patients who developed motor complications [2]: 28%

Compound: CCCC(=O)[O-].[Na+] [sodium butyrate]
- neurological phenotypes [3]: successfully ameliorated

Compound: Phosphatidylcholine [PC]
- oral absorption ([4]; taken orally with meals): up to 90 % per 24 hrs
- time over which blood levels peak ([4]; taken orally): 8 to 12 h

Compound: carbidopa/levodopa
- half-life compared with dopamine agonists [5]: shorter half-life

Compound: botulinum toxin
- effect on tremors [6]: without any substantial reduction in tremors

Compound: Cc1ccc(C(=O)c2cc(O)c(O)c([N+](=O)[O-])c2)cc1 [tolcapone]
- deaths from liver failure [7]: three

Compound: CCCN(CCC)CCc1cccc2c1CC(=O)N2 [ropinerole]
- effectiveness in comparison ([8]; early stage Parkinson's Disease, versus levodopa): as effective as levodopa
- effectiveness in comparison ([8]; versus bromocriptine (Parlodel)): more effective than bromocriptine
- patients who developed dyskinesia [9]: 20%
- severe form among those who developed dyskinesia [9]: 8%

Compound: N[C@@H](Cc1ccc(O)c(O)c1)C(=O)O [levodopa, Levodopa]
- tolerance of drug by patient ([1]; Case Study 6, before protocol): intolerant

Compound: C#CCN(C)[C@H](C)Cc1ccccc1 [Selegiline]
- delay of the progression of motor symptoms [10]: about nine
